Results taken from article PMC9019904, “AD Informer Set: Chemical tools to facilitate Alzheimer's disease drug discovery” (Alzheimer's & Dementia : Translational Research & Clinical …, 2022).
≈ marks a conversion by molar mass, not a printed value. Where a name gives a salt, the structure may show the parent alone.

Experiments:
[1] = system: HMC3 (human microglia) cell line; experiment: pHrodo-myelin phagocytosis/cell viability high content imaging assay: viability (cell count, nuclear area, nuclear intensity)
Outline: (§1)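 Duplicate single-point screen at 10 μM over 48 h, combined with pHrodo-myelin phagocytosis during the last 20 h. Cytotoxicity is taken from imaged cell counts and nuclear intensity changes, normalized to untreated wells as % control.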

[2] = Kinetic solubility in aqueous buffer pH 7.4 by total chemiluminescent nitrogen determination (Analiza); details: aqueous buffer, pH 7.4, aqueous buffer, kinetic from dmso stock
[3] = system: HMC3 (human microglia) cell line; experiment: pHrodo-myelin phagocytosis/cell viability high content imaging assay: phagocytosis signal; format: cell-based
Outline: (§2)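 Simultaneous phagocytosis/viability imaging at approximately 22 h after adding pHrodo-myelin. Rising intensity flagged early apoptosis and falling intensity later apoptosis.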

[4] = system: BV2 (mouse microglia) cell line; experiment: pHrodo-myelin phagocytosis/cell viability high content imaging assay: viability (cell count, nuclear area, nuclear intensity)
Outline: as §1

[5] = system: BV2 (mouse microglia) cell line; experiment: pHrodo-myelin phagocytosis/cell viability high content imaging assay: phagocytosis signal; format: cell-based
Outline: as §2

solubility kinetic [2]	SMILES	Inhibition of human microglial phagocytosis at 10 μM (<70% control) ([3]; 10 μM, HMC3)	Inhibition of human microglial phagocytosis at 10 μM (<70% control) ([3]; HMC3, 10 μM)	also measured
6.5 µM (≈ 2.26 µg/mL)	CCn1cc(C(=O)O)c(=O)c2c(N)c(F)c(NC3CCCCC3)cc21 [AS1842856]	Y (The compound was found to inhibit phagocytosis (response threshold: <70% control) when human immortalized microglial cells were dosed at 10 μM (Y: yes))	–	Human microglial cytotoxicity at 10 μM (<70% control) ([1]; 10 μM, HMC3): Y (The compound was found to be cytotoxic (cell count threshold: <70% control) when human immortalized microglial cells were dosed at 10 μM (Y: yes))
117 µM (≈ 56.7 µg/mL)	CN(C)C/C=C/C(=O)Nc1cc2c(Nc3ccc(F)c(Cl)c3)ncnc2cc1O[C@H]1CCOC1 [Afatinib]	–	Y (The compound was found to inhibit phagocytosis (response threshold: <70% control) when human immortalized microglial cells were dosed at 10 μM (Y: yes))	Mouse microglial cytotoxicity at 10 μM (<70% control) ([4]; BV2, 10 μM): Y (The compound was found to be cytotoxic (cell count threshold: <70% control) when murine immortalized microglial cells were dosed at 10 μM (Y: yes)); Inhibition of mouse microglial phagocytosis at 10 μM (<70% control) ([5]; BV2, 10 μM): Y (The compound was found to inhibit phagocytosis (response threshold: <70% control) when murine immortalized microglial cells were dosed at 10 μM (Y: yes))
170 µM (≈ 61.4 µg/mL)	CCCC[C@@H](C=O)NC(=O)[C@H](CC(C)C)NC(=O)OCc1ccccc1 [Calpeptin]	–	Y (The compound was found to inhibit phagocytosis (response threshold: <70% control) when human immortalized microglial cells were dosed at 10 μM (Y: yes))	Stimulation of mouse microglial phagocytosis at 10 μM (>150% control) ([5]; BV2, 10 μM): Y (The compound was found to stimulate phagocytosis (response threshold: >150% control) when murine immortalized microglial cells were dosed at 10 μM (Y: yes))
< 1.1 µM	O=C(/C=C/c1ccco1)Nc1ncc(Cc2ccccc2)s1 [Compound 1]	Y (The compound was found to inhibit phagocytosis (response threshold: <70% control) when human immortalized microglial cells were dosed at 10 μM (Y: yes))	–	Mouse microglial cytotoxicity at 10 μM (<70% control) ([4]; 10 μM, BV2): Y (The compound was found to be cytotoxic (cell count threshold: <70% control) when murine immortalized microglial cells were dosed at 10 μM (Y: yes)); Inhibition of mouse microglial phagocytosis at 10 μM (<70% control) ([5]; 10 μM, BV2): Y (The compound was found to inhibit phagocytosis (response threshold: <70% control) when murine immortalized microglial cells were dosed at 10 μM (Y: yes))
160 µM (≈ 72.1 µg/mL)	C[C@@H](Oc1cc(-c2cnn(C3CCNCC3)c2)cnc1N)c1c(Cl)ccc(F)c1Cl [Crizotinib]	–	Y (The compound was found to inhibit phagocytosis (response threshold: <70% control) when human immortalized microglial cells were dosed at 10 μM (Y: yes))	Inhibition of mouse microglial phagocytosis at 10 μM (<70% control) ([5]; BV2, 10 μM): Y (The compound was found to inhibit phagocytosis (response threshold: <70% control) when murine immortalized microglial cells were dosed at 10 μM (Y: yes))
4.5 µM (≈ 1.4 µg/mL)	CCN(CC)c1ccc(/C=N/NC(=O)c2ccc(O)cc2)cc1 [DY131]	–	Y (The compound was found to inhibit phagocytosis (response threshold: <70% control) when human immortalized microglial cells were dosed at 10 μM (Y: yes))	Mouse microglial cytotoxicity at 10 μM (<70% control) ([4]; BV2, 10 μM): Y (The compound was found to be cytotoxic (cell count threshold: <70% control) when murine immortalized microglial cells were dosed at 10 μM (Y: yes))
42.1 µM (≈ 13.4 µg/mL)	CC(Nc1nc(N2CCCC2)nc2ccccc12)c1ccccc1 (stereo not shown) [Importazole]	Y (The compound was found to inhibit phagocytosis (response threshold: <70% control) when human immortalized microglial cells were dosed at 10 μM (Y: yes))	–	Mouse microglial cytotoxicity at 10 μM (<70% control) ([4]; 10 μM, BV2): Y (The compound was found to be cytotoxic (cell count threshold: <70% control) when murine immortalized microglial cells were dosed at 10 μM (Y: yes)); Human microglial cytotoxicity at 10 μM (<70% control) ([1]; 10 μM, HMC3): Y (The compound was found to be cytotoxic (cell count threshold: <70% control) when human immortalized microglial cells were dosed at 10 μM (Y: yes))
172 µM (≈ 69.9 µg/mL)	C[C@H]1Oc2cc(cnc2N)-c2c(nn(C)c2C#N)CN(C)C(=O)c2ccc(F)cc21 [Lorlatinib]	–	Y (The compound was found to inhibit phagocytosis (response threshold: <70% control) when human immortalized microglial cells were dosed at 10 μM (Y: yes))	Stimulation of mouse microglial phagocytosis at 10 μM (>150% control) ([5]; BV2, 10 μM): Y (The compound was found to stimulate phagocytosis (response threshold: >150% control) when murine immortalized microglial cells were dosed at 10 μM (Y: yes))
4.8 µM (≈ 3.32 µg/mL)	CS[C@@]1(C(=O)Nc2ccc3[nH]nc(-c4ccc(OC(C)C)nc4)c3c2)CCN(CC(=O)N2CC=C(c3ccc(-c4ncn(C)n4)cc3)CC2)C1 [MK-8353]	Y (The compound was found to inhibit phagocytosis (response threshold: <70% control) when human immortalized microglial cells were dosed at 10 μM (Y: yes))	–	Mouse microglial cytotoxicity at 10 μM (<70% control) ([4]; 10 μM, BV2): Y (The compound was found to be cytotoxic (cell count threshold: <70% control) when murine immortalized microglial cells were dosed at 10 μM (Y: yes)); Stimulation of mouse microglial phagocytosis at 10 μM (>150% control) ([5]; 10 μM, BV2): Y (The compound was found to stimulate phagocytosis (response threshold: >150% control) when murine immortalized microglial cells were dosed at 10 μM (Y: yes))
< 1.1 µM	OC(c1cc(C23CC4CC(CC(C4)C2)C3)nc2c(Cl)cc(Cl)cc12)C1CCCCN1 (stereo not shown) [NSC305787]	–	Y (The compound was found to inhibit phagocytosis (response threshold: <70% control) when human immortalized microglial cells were dosed at 10 μM (Y: yes))	Mouse microglial cytotoxicity at 10 μM (<70% control) ([4]; BV2, 10 μM): Y (The compound was found to be cytotoxic (cell count threshold: <70% control) when murine immortalized microglial cells were dosed at 10 μM (Y: yes))
6.2 µM (≈ 3.64 µg/mL)	O=C(Nc1ccc2[nH]nc(-c3ccncc3)c2c1)[C@@H]1CCN(CC(=O)N2CCN(c3ccc(-c4ncccn4)cc3)CC2)C1 [SCH772984]	Y (The compound was found to inhibit phagocytosis (response threshold: <70% control) when human immortalized microglial cells were dosed at 10 μM (Y: yes))	–	Mouse microglial cytotoxicity at 10 μM (<70% control) ([4]; 10 μM, BV2): Y (The compound was found to be cytotoxic (cell count threshold: <70% control) when murine immortalized microglial cells were dosed at 10 μM (Y: yes)); Stimulation of mouse microglial phagocytosis at 10 μM (>150% control) ([5]; 10 μM, BV2): Y (The compound was found to stimulate phagocytosis (response threshold: >150% control) when murine immortalized microglial cells were dosed at 10 μM (Y: yes))
155 µM (≈ 58.4 µg/mL)	O=C(O)CCCc1nc(-c2ccc(Cl)c(Cl)c2)c(-c2ccccc2)o1 [SWE101]	–	Y (The compound was found to inhibit phagocytosis (response threshold: <70% control) when human immortalized microglial cells were dosed at 10 μM (Y: yes))	Stimulation of mouse microglial phagocytosis at 10 μM (>150% control) ([5]; BV2, 10 μM): Y (The compound was found to stimulate phagocytosis (response threshold: >150% control) when murine immortalized microglial cells were dosed at 10 μM (Y: yes))
40 µM (≈ 19.3 µg/mL)	O=S(=O)(c1ccccc1)N(CC(F)(F)F)c1ccc(C(O)(C(F)(F)F)C(F)(F)F)cc1 [T 0901317]	Y (The compound was found to inhibit phagocytosis (response threshold: <70% control) when human immortalized microglial cells were dosed at 10 μM (Y: yes))	–	Stimulation of mouse microglial phagocytosis at 10 μM (>150% control) ([5]; 10 μM, BV2): Y (The compound was found to stimulate phagocytosis (response threshold: >150% control) when murine immortalized microglial cells were dosed at 10 μM (Y: yes))
40.8 µM (≈ 12.8 µg/mL)	O=C(CCl)c1ccccc1Nc1cccc(C(F)(F)F)c1 [TED-347]	–	Y (The compound was found to inhibit phagocytosis (response threshold: <70% control) when human immortalized microglial cells were dosed at 10 μM (Y: yes))	Stimulation of mouse microglial phagocytosis at 10 μM (>150% control) ([5]; BV2, 10 μM): Y (The compound was found to stimulate phagocytosis (response threshold: >150% control) when murine immortalized microglial cells were dosed at 10 μM (Y: yes))
796 µM	COc1ccc(CCCN2CCC(COC(c3ccccc3)c3ccccc3)CC2)cc1 [UK-78282 HCl]	Y (The compound was found to inhibit phagocytosis (response threshold: <70% control) when human immortalized microglial cells were dosed at 10 μM (Y: yes))	–	Stimulation of mouse microglial phagocytosis at 10 μM (>150% control) ([5]; 10 μM, BV2): Y (The compound was found to stimulate phagocytosis (response threshold: >150% control) when murine immortalized microglial cells were dosed at 10 μM (Y: yes))

SMILES	solubility kinetic [2]	Inhibition of human microglial phagocytosis at 10 μM (<70% control) ([3]; 10 μM, HMC3)	Inhibition of human microglial phagocytosis at 10 μM (<70% control) ([3]; HMC3, 10 μM)	also measured
O=C(NC1CCNCC1)c1n[nH]cc1NC(=O)c1c(Cl)cccc1Cl [AT-7519]	146 µM (≈ 55.8 µg/mL)	–	–	Mouse microglial cytotoxicity at 10 μM (<70% control) ([4]; BV2, 10 μM): Y (The compound was found to be cytotoxic (cell count threshold: <70% control) when murine immortalized microglial cells were dosed at 10 μM (Y: yes)); Inhibition of mouse microglial phagocytosis at 10 μM (<70% control) ([5]; BV2, 10 μM): Y (The compound was found to inhibit phagocytosis (response threshold: <70% control) when murine immortalized microglial cells were dosed at 10 μM (Y: yes)); Stimulation of human microglial phagocytosis at 10 μM (>150% control) ([3]; HMC3, 10 μM): Y (The compound was found to stimulate phagocytosis (response threshold: >150% control) when human immortalized microglial cells were dosed at 10 μM (Y: yes))
CC(C)(C)c1cnc(CSc2cnc(NC(=O)C3CCNCC3)s2)o1 [SNS-032]	138 µM (≈ 52.3 µg/mL)	–	–	Mouse microglial cytotoxicity at 10 μM (<70% control) ([4]; BV2, 10 μM): Y (The compound was found to be cytotoxic (cell count threshold: <70% control) when murine immortalized microglial cells were dosed at 10 μM (Y: yes)); Human microglial cytotoxicity at 10 μM (<70% control) ([1]; HMC3, 10 μM): Y (The compound was found to be cytotoxic (cell count threshold: <70% control) when human immortalized microglial cells were dosed at 10 μM (Y: yes)); Stimulation of human microglial phagocytosis at 10 μM (>150% control) ([3]; HMC3, 10 μM): Y (The compound was found to stimulate phagocytosis (response threshold: >150% control) when human immortalized microglial cells were dosed at 10 μM (Y: yes))
